Assay results taken from patent USRE37781E1, “Substituted cyclic carbonyls and derivatives thereof useful as retroviral protease inhibitors” (DuPont Pharmaceuticals Company, priority 1991, dated 2002).
pKi: −log10 of the molar value. In brackets after ≈: the same amount, converted by molar mass. Read-outs that look alike come from different tables or passages of the source.

Tests used:
HIV-1 (RF) in MT-2 cells = assay: microbe, parasite or virus in culture; format: cell-based; conditions: HIV-1 infected MT-2 cells, class symbols
How it was run: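 HIV-1 laboratory strains (RF, MN, IIIB) grown in H9 cells in RPMI 1640 with 5% FCS; infections in MT-2 cells. Viral RNA quantified by hybridization with biotinylated gag/pol capture probes on streptavidin plates and alkaline phosphatase-conjugated reporter probes; BH10 gag-pol in vitro transcripts serve as RNA standards.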

[1] = target: single-chain tethered dimer of HIV protease (Human immunodeficiency virus 1, UniProt P04585); assay: biochemical; format: biochemical
Description: HIV Protease Inhibition Assay—HPLC Method
Active protease was prepared as described therein by extraction with 67% acetic acid, dilution 33-fold with water, dialysis against water and then against a “refolding buffer” consisting of 20 mM MES, 1 mM dithiothreitol and 10% glycerol. Protease was stored as a stock preparation at 10 uM in refolding buffer.
Substrate: Peptide of sequence: aminobenzoyl-Ala-Thr-His-Gln-Val-Tyr-Phe(NO2)-Val-Arg-Lys-Ala containing p-nitrophenylalanine, was prepared by solid phase synthesis as previously described Cheng et al., op.cit. Stock solutions of 2 mM substrate were prepared in DMSO.
Inhibitory compounds were dissolved in sufficient DMSO to make 3 mM stock solutions. All further dilutions were prepared in “assay buffer”: 1M NaCl, 50 mM MES, pH 5.5, 1 mM EDTA, 1 mM DTT, […] glycerol.
Enzyme reaction: In a 2 ml screw-cap centrifuge tube were added 50 ul protease (final concentration 0.25 nM) and 0.1 ml inhibitory compound (final concentration […]). After 15 min preincubation at room temperature, the reaction was started with the addition of 0.05 ml substrate (final concentration 5 uM). Incubation was carried out at 30 C. for 1 hr. The reaction was stopped with 1 ml 0.1M ammonium hydroxide.
HPLC measurement of product formation: The product (aminobenzoyl-Ala-Thr-His-Gln-Val-Tyr) was separated from substrate on a Pharmacia MonoQ anion exchange column. The injection volume was 0.2 ml. The mobile phases were: A (20 mM trisHCl, pH 9.0, 0.02% sodium Azide, 10% acetonitrile), B (20 mM tris HCl, pH 9.0, 0.02% sodium azide, 0.5M ammonium formate, 10% acetonitrile). The mobile phases were pumped at 1 ml/min, with a gradient from 0 to 30% B in 5 min, 100% B for 4 min to wash the column, and a re-equilibration for 4 min. The retention time of the product was 3.6 min. Detection with a Shimadzu model RF535 fluorescence monitor was at 330 nm (excitation) and 430 (emission).

[2] = HIV protease inhibition, class symbols, read-out: Ki
[3] = Human immunodeficiency virus 1, MT2, HIV RNA assay, read-out: IC90

Row | SMILES | IC90 (HIV-1 (RF) in MT-2 cells; [3]) [µg/mL] | pKi [1] | pKi ([1]; Table 2t, read-out: Ki) | also measured
1 | C=CCN1C(=O)N(CC2CC2)C(Cc2ccccc2)C(O)C(O)C1Cc1ccccc1 (centres unmarked) [Example 3W] | – | – | – | IC90 (HIV-1 (RF) in MT-2 cells; HIV RNA assay): +++ (+++=<10 μg/mL); pKi [1, 2]: > 8.00
2 | CN(C)CCN1C(=O)N(CCN(C)C)C(Cc2ccccc2)C(O)C(O)C1Cc1ccccc1 (centres unmarked) [Example 6R] | > 100 | < 6.00 | – | –
3 | O=C1N(CC2CCC2)C(Cc2ccccc2)C(O)C(O)C(Cc2ccccc2)N1CC1CCC1 (centres unmarked) [Example 6G] | < 10 | > 8.00 | – | –
4 | O=C1N(CC2CC2)CCC(O)C(Cc2ccccc2)N1CC1CC1 (centres unmarked) [30O] | – | – | < 6.00 | –
5 | CC(C)N1C(=O)N(Cc2ccccn2)C(Cc2ccccc2)C(O)C(O)C1Cc1ccccc1 (centres unmarked) [Example 6L] | < 10 | 6.00 to 8.00 | – | –
6 | NC(=NO)c1cccc(CN2CCC(O)C(Cc3ccccc3)N(Cc3cccc(C(N)=NO)c3)C2=O)c1 (centres unmarked) [30R] | – | – | > 8.00 | –
7 | COc1ccccc1CN1C(=O)N(Cc2ccccc2OC)C(Cc2ccccc2)C(O)C(O)C1Cc1ccccc1 (centres unmarked) [Example 6ZB] | 10 to 100 (≈ 17.6 to 176 µM) | < 6.00 | – | –
8 | O=C(O)c1ccc(CN2C(=O)N(Cc3ccc(C(=O)O)cc3)C(Cc3ccccc3)C(O)C(O)C2Cc2ccccc2)cc1 (centres unmarked) [Example 6B] | – | – | – | IC90 (HIV-1 (RF) in MT-2 cells; HIV RNA assay): ++ (++=10 to 100 μg/mL); pKi [1, 2]: 6.00 to 8.00
9 | O=C1N(CC2CCCCC2)C(Cc2ccccc2)C(O)C(O)C(Cc2ccccc2)N1CC1CCCCC1 (centres unmarked) [Example 3O] | – | – | – | IC90 (HIV-1 (RF) in MT-2 cells; HIV RNA assay): + (+=>100 μg/mL); pKi [1, 2]: 6.00 to 8.00
10 | O=C1N(Cc2ccc(O)cc2)CC(O)C(Cc2ccccc2)N1Cc1ccc(O)cc1 (centres unmarked) [30D] | – | – | < 6.00 | –
11 | CC(=O)Nc1cccc(CN2C(=O)N(Cc3cccc(NC(C)=O)c3)C(Cc3ccccc3)C(O)C(O)C2Cc2ccccc2)c1 (centres unmarked) [Example 6ZN] | < 10 | > 8.00 | – | –
12 | O=C1N(Cc2ccccc2)CCC(=NO)C(Cc2ccccc2)N1Cc1ccccc1 (centres unmarked) [30T] | – | – | < 6.00 | –
13 | O=C1N(Cc2cccc(O)c2)C(Cc2ccccc2)C(O)C(O)C(Cc2ccccc2)N1CC1CC1 (centres unmarked) [Example 6D] | – | – | – | IC90 (HIV-1 (RF) in MT-2 cells; HIV RNA assay): +++ (+++=<10 μg/mL); pKi [1, 2]: > 8.00
14 | O=C1N(Cc2ccc(O)c(O)c2)C(Cc2ccccc2)C(O)C(O)C(Cc2ccccc2)N1Cc1ccc(O)c(O)c1 (centres unmarked) [Example 6ZQ] | < 10 | > 8.00 | – | –
15 | O=C1CCN(Cc2ccccc2)C(=O)N(Cc2ccccc2)C1Cc1ccccc1 (centres unmarked) [30S] | – | – | < 6.00 | –
16 | O=C1N(Cc2ccccc2)CC(O)C(Cc2ccccc2)N1Cc1ccccc1 (centres unmarked) [30U] | – | – | < 6.00 | –
17 | O=C1N(Cc2ccncc2)C(Cc2ccccc2)C(O)C(O)C(Cc2ccccc2)N1CC1CC1 (centres unmarked) [Example 4C] | < 10 | > 8.00 | – | –
18 | C=COCCN1C(=O)N(CCOC=C)C(Cc2ccccc2)C(O)C(O)C1Cc1ccccc1 (centres unmarked) [Example 4D] | – | 6.00 to 8.00 | – | –
19 | CN(C)CCN1C(=O)N(CCN(C)C)C(Cc2ccccc2)C(O)C(O)C1Cc1ccccc1 (centres unmarked) [Example 6N] | – | – | – | IC90 (HIV-1 (RF) in MT-2 cells; HIV RNA assay): + (+=>100 μg/mL); pKi [1, 2]: < 6.00
20 | CCCN1C(=O)N(Cc2ccccc2)C(Cc2ccccc2)C(O)C(O)C1Cc1ccccc1 (centres unmarked) [Example 4G] | < 10 | > 8.00 | – | –
21 | O=C1N(Cc2ccccn2)C(Cc2ccccc2)C(O)C(O)C(Cc2ccccc2)N1CC1CC1 (centres unmarked) [Example 4N] | – | – | – | IC90 (HIV-1 (RF) in MT-2 cells; HIV RNA assay): +++ (+++=<10 μg/mL); pKi [1, 2]: > 8.00
22 | CCCCN1C(=O)N(CC2CC2)C(Cc2ccccc2)C(O)C(O)C1Cc1ccccc1 (centres unmarked) [Example 3X] | < 10 | > 8.00 | – | –
23 | O=C1N(Cc2ccc(Cl)s2)C(Cc2ccccc2)C(O)C(O)C(Cc2ccccc2)N1Cc1ccc(Cl)s1 (centres unmarked) [Example 6F] | – | – | – | IC90 (HIV-1 (RF) in MT-2 cells; HIV RNA assay): +++ (+++=<10 μg/mL); pKi [1, 2]: 6.00 to 8.00
24 | [2H]c1c([2H])c([2H])c(C([2H])([2H])N2C(=O)N(C([2H])([2H])c3c([2H])c([2H])c([2H])c([2H])c3[2H])C(Cc3ccccc3)C(O)C(O)C2Cc2ccccc2)c([2H])c1[2H] (centres unmarked) [Example 4H] | < 10 | > 8.00 | – | –
25 | O=C1N(CC2CCCC2)C(Cc2ccccc2)C(O)C(O)C(Cc2ccccc2)N1CC1CCCC1 (centres unmarked) [Example 6H] | < 10 | > 8.00 | – | –
26 | O=C(O)c1cccc(CN2C(=O)N(Cc3cccc(C(=O)O)c3)C(Cc3ccccc3)C(O)C(O)C2Cc2ccccc2)c1 (centres unmarked) [Example 6A] | – | – | – | IC90 (HIV-1 (RF) in MT-2 cells; HIV RNA assay): +++ (+++=<10 μg/mL); pKi [1, 2]: > 8.00

Row | SMILES | IC90 (HIV-1 (RF) in MT-2 cells; [3]) [µg/mL] | pKi [1] | pKi ([1]; Table 2t, read-out: Ki) | also measured
27 | O=C1N(CC2CCCC2)C(Cc2ccccc2)C(O)C(O)C(Cc2ccccc2)N1CC1CC1 (centres unmarked) [Example 4F] | < 10 | > 8.00 | – | –
28 | O=C1NC(Cc2ccccc2)C(O)C(O)C(Cc2ccccc2)N1Cc1cccc([N+](=O)[O-])c1 (centres unmarked) [Example 6ZL] | < 10 | > 8.00 | – | –
29 | O=C1N(Cc2cccc(Cl)c2)C(Cc2ccccc2)C(O)C(O)C(Cc2ccccc2)N1CC1CC1 (centres unmarked) [Example 6ZH] | – | – | – | IC90 (HIV-1 (RF) in MT-2 cells; HIV RNA assay): +++ (+++=<10 μg/mL); pKi [1, 2]: > 8.00
30 | O=C1N(Cc2ccccc2)C(Cc2ccccc2)C(O)C(O)C(Cc2ccccc2)N1CC1CCCC1 (centres unmarked) [Example 4E] | – | – | – | IC90 (HIV-1 (RF) in MT-2 cells; HIV RNA assay): +++ (+++=<10 μg/mL); pKi [1, 2]: > 8.00
31 | CCCCN1C(=O)N(CC2CCCC2)C(Cc2ccccc2)C(O)C(O)C1Cc1ccccc1 (centres unmarked) [Example 6J] | < 10 | > 8.00 | – | –
32 | O=C1N(Cc2ccc3ccccc3c2)CCC(O)C(Cc2ccccc2)N1Cc1ccc2ccccc2c1 (centres unmarked) [30M] | – | – | < 6.00 | –
33 | C=CCN1C(=O)N(Cc2ccc3ccccc3n2)C(Cc2ccccc2)C(O)C(O)C1Cc1ccccc1 (centres unmarked) [Example 5D] | – | – | – | IC90 (HIV-1 (RF) in MT-2 cells; HIV RNA assay): +++ (+++=<10 μg/mL); pKi [1, 2]: > 8.00
34 | O=CNc1cccc(CN2C(=O)N(Cc3cccc(NC=O)c3)C(Cc3ccccc3)C(O)C(O)C2Cc2ccccc2)c1 (centres unmarked) [Example 6ZM] | < 10 | > 8.00 | – | –
35 | N#Cc1cccc(CN2CC(O)C(Cc3ccccc3)N(Cc3cccc(C#N)c3)C2=O)c1 (centres unmarked) [30C] | – | – | < 6.00 | –
36 | O=S1(=O)N(Cc2ccc3ccccc3c2)CC(O)C(Cc2ccccc2)N1Cc1ccc2ccccc2c1 (centres unmarked) [30I] | – | – | 6.00 to 8.00 | –
37 | O=C1N(Cc2ccc(Cl)cc2)C(Cc2ccccc2)C(O)C(O)C(Cc2ccccc2)N1Cc1ccc(Cl)cc1 (centres unmarked) [Example 6U] | < 10 | > 8.00 | – | –
38 | O=C1N(Cc2ccccc2Cl)C(Cc2ccccc2)C(O)C(O)C(Cc2ccccc2)N1Cc1ccccc1Cl (centres unmarked) [Example 6ZD] | < 10 | 6.00 to 8.00 | – | –
39 | O=C1N(Cc2cccnc2)C(Cc2ccccc2)C(O)C(O)C(Cc2ccccc2)N1CC1CC1 (centres unmarked) [Example 5G] | – | – | – | IC90 (HIV-1 (RF) in MT-2 cells; HIV RNA assay): +++ (+++=<10 μg/mL); pKi [1, 2]: > 8.00
40 | O=C1N(CCCCCCO)CC(O)C(Cc2ccccc2)N1CCCCCCO (centres unmarked) [30G] | – | – | < 6.00 | –
41 | N#Cc1cccc(CN2CCC(O)C(Cc3ccccc3)N(Cc3cccc(C#N)c3)C2=O)c1 (centres unmarked) [30P] | – | – | < 6.00 | –
42 | O=C1[C@@H](Cc2ccccc2)C[C@@H](O)[C@@H](Cc2ccccc2)N1Cc1ccccc1 [Example 25A] | – | < 6.00 | – | –
43 | O=C1NC(Cc2ccccc2)C(O)C(O)C(Cc2ccccc2)N1CC1CC1 (centres unmarked) [Example 4X] | – | – | – | pKi [1, 2]: 6.00 to 8.00
44 | O=C1N(Cc2ccccc2)CCC(O)C(Cc2ccccc2)N1Cc1ccccc1 (centres unmarked) [30L] | – | – | < 6.00 | –
45 | O=C1N(Cc2ccc(CO)cc2)CC(O)C(Cc2ccccc2)N1Cc1ccc(CO)cc1 (centres unmarked) [30B] | – | – | < 6.00 | –
46 | O=C1N(Cc2ccc(CO)cc2)CCC(O)C(Cc2ccccc2)N1Cc1ccc(CO)cc1 (centres unmarked) [30N] | – | – | 6.00 to 8.00 | –
47 | O=C1N(CC2CC2)CC(O)C(Cc2ccccc2)N1CC1CC1 (centres unmarked) [30E] | – | – | < 6.00 | –
48 | O=S1(=O)N(CC2CC2)CC(O)C(Cc2ccccc2)N1CC1CC1 (centres unmarked) [30J] | – | – | < 6.00 | –
49 | O=C1N(Cc2ccccc2)CC(O)C(Cc2ccccc2)N1Cc1ccccc1 (racemic) [30A] | – | – | < 6.00 | –
50 | O=C1N(Cc2ccc3ccccc3c2)CC(O)C(Cc2ccccc2)N1Cc1ccc2ccccc2c1 (centres unmarked) [30F] | – | – | < 6.00 | –
51 | O=S1(=O)N(Cc2ccccc2)CCC(O)C(Cc2ccccc2)N1Cc1ccccc1 (centres unmarked) [30Q] | – | – | < 6.00 | –
